Measurements from PMC7036097 (BioMed Research International, 2020).

Target: T1, DPP4 (Homo sapiens, UniProt P27487)
T1 construct: purchased Sigma
Assay: DPPIV-Glo Protease Assay (DPP4 protease inhibition assay)
Format: biochemical
Settings: in vitro
Description: At the same time, the inhibitory effect of other compounds present in tea such as epigallocatechin, epicatechin gallate, epicatechin, and catechin on DPP4 activity was also determined. […] Epigallocatechin, epicatechin gallate, epicatechin, and catechin were obtained from bidepharm (Shanghai, China). Half maximal inhibitory concentration (IC50) values were determined by nonlinear regression in GraphPad Prism 6 software.

T1 sequence (P27487 whole entry): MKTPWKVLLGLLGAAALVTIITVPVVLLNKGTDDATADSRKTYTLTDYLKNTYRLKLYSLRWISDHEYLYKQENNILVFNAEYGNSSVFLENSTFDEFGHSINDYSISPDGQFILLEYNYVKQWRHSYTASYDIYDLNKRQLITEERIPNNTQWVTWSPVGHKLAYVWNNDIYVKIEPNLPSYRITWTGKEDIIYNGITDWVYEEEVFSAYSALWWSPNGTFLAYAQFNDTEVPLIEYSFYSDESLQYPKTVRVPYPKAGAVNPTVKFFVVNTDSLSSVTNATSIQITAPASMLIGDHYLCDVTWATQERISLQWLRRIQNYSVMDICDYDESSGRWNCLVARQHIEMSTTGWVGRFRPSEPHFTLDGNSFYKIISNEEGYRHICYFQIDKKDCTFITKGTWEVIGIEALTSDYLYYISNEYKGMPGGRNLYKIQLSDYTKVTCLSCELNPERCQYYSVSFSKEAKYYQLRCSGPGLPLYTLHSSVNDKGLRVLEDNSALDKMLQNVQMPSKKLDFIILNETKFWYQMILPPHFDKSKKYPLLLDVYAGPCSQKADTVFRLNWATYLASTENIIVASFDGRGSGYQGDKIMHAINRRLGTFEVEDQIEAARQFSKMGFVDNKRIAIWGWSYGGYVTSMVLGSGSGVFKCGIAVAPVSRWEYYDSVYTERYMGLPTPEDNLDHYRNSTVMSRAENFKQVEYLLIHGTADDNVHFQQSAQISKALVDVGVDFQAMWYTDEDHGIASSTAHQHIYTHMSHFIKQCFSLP

SMILES	IC50
Oc1cc(O)c2c(c1)O[C@H](c1ccc(O)c(O)c1)[C@@H](O)C2 [catechin]	381 µM
O=C(O[C@@H]1Cc2c(O)cc(O)cc2O[C@@H]1c1ccc(O)c(O)c1)c1cc(O)c(O)c(O)c1 [epicatechin gallate]	107 µM
Oc1cc(O)c2c(c1)O[C@H](c1ccc(O)c(O)c1)[C@H](O)C2 [epicatechin]	281 µM

Further compounds by falling IC50, results first:

IC50	SMILES
567 µM	Oc1cc(O)c2c(c1)O[C@H](c1cc(O)c(O)c(O)c1)[C@H](O)C2 [epigallocatechin]
28.4 µM	O=C(OC1Cc2c(O)cc(O)cc2OC1c1cc(O)c(O)c(O)c1)c1cc(O)c(O)c(O)c1 (centres unmarked) [EGCG, Epigallocatechin-3-gallate]
